Experimental data taken from patent publication US8912315B2, “Purkinje cell-tropic viral vector” (Japan Science and Technology Agency, priority 2006, dated 2014).

System: HeLa cells
Type: cell-based
Conditions: viruses generated in HEK293T cells with the named serum or protease inhibitor, Table 3; TU/ml

Compound	Titer × 10^9
COc1ccc(S(=O)(=O)N(Cc2cccnc2)[C@@H](C(=O)NO)C(C)C)cc1 [CGS 27023A]	3.4 ± 1.4 × 10^9
TIMP-1: metallo proteinase inhibitor added to medium during virus generation	6.3 × 10^9
